In the supplement of paper PMC10307832:

What was measured:
Experiment in all cases: relative viability (nuclei count vs DMSO), 5 days (fraction); higher = more cells survive
XMD8-85 + OSI-027 = compound: CN1CCN(CC1)C2=CC(=C(C=C2)NC3=NC=C4C(=N3)N(C5=CC=CC=C5C(=O)N4C)C)OC [XMD8-85] + COc1cccc2cc(-c3nc([C@H]4CC[C@H](C(=O)O)CC4)n4ncnc(N)c34)[nH]c12 [OSI-027] (partner 0.5 µM)
How it was run: (§1)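 For relative viability, nuclei counts in treated wells were divided by those in vehicle wells. Lung cancer cell lines had been pin-tool dosed in 1536-well plates the day after seeding and cultured for 5 days, then fixed and stained in one step (final 0.05% Triton X-100, 1% formaldehyde, 1 ug/ml Hoechst) and imaged at 4×. Doses were one drug alone or a fixed anchor-drug dose plus five library-drug doses (not always all listed) in √10 steps, and values are duplicate-plate medians.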

XMD8-85 + Pictilisib = compound: CN1CCN(CC1)C2=CC(=C(C=C2)NC3=NC=C4C(=N3)N(C5=CC=CC=C5C(=O)N4C)C)OC [XMD8-85] + CS(=O)(=O)N1CCN(Cc2cc3nc(-c4cccc5[nH]ncc45)nc(N4CCOCC4)c3s2)CC1 [Pictilisib] (partner 1 µM)
How it was run: as §1

4EGI-1 + Dasatinib = compound: O=C(O)C(Cc1ccccc1[N+](=O)[O-])=NNc1nc(-c2ccc(Cl)c(Cl)c2)cs1 (mixture of isomers) [4EGI-1] + Cc1nc(Nc2ncc(C(=O)Nc3c(C)cccc3Cl)s2)cc(N2CCN(CCO)CC2)n1 [Dasatinib] (partner 0.075 µM)
How it was run: as §1

4EGI-1 + Lapatinib = compound: O=C(O)C(Cc1ccccc1[N+](=O)[O-])=NNc1nc(-c2ccc(Cl)c(Cl)c2)cs1 (mixture of isomers) [4EGI-1] + CS(=O)(=O)CCNCc1ccc(-c2ccc3ncnc(Nc4ccc(OCc5cccc(F)c5)c(Cl)c4)c3c2)o1 [Lapatinib] (partner 2 µM)
How it was run: as §1

Cell Line	relative viability (XMD8-85 + OSI-027; first compound 0.08 µM)	relative viability (XMD8-85 + OSI-027; first compound 0.253 µM)	relative viability (XMD8-85 + OSI-027; first compound 0.8 µM)	relative viability (XMD8-85 + OSI-027; first compound 2.53 µM)	relative viability (XMD8-85 + OSI-027; first compound 8 µM)	relative viability (XMD8-85 + Pictilisib; first compound 0.08 µM)	relative viability (XMD8-85 + Pictilisib; first compound 0.253 µM)	relative viability (XMD8-85 + Pictilisib; first compound 0.8 µM)	relative viability (XMD8-85 + Pictilisib; first compound 2.53 µM)	relative viability (XMD8-85 + Pictilisib; first compound 8 µM)	relative viability (4EGI-1 + Dasatinib; first compound 0.5 µM)	relative viability (4EGI-1 + Dasatinib; first compound 5 µM)	relative viability (4EGI-1 + Dasatinib; first compound 15.81 µM)	relative viability (4EGI-1 + Dasatinib; first compound 50 µM)	relative viability (4EGI-1 + Lapatinib; first compound 0.5 µM)	relative viability (4EGI-1 + Lapatinib; first compound 5 µM)	relative viability (4EGI-1 + Lapatinib; first compound 15.81 µM)	relative viability (4EGI-1 + Lapatinib; first compound 50 µM)	relative viability (4EGI-1 + Dasatinib; first compound 1.581 µM)	relative viability (4EGI-1 + Lapatinib; first compound 1.581 µM)
NCI-H2023	0.314	0.434	0.402	0.37	0.248	0.199	0.274	0.259	0.265	0.178	0.599	0.605	0.226	0.0859	1.37	0.964	0.217	0.0883	–	–
NCI-H2085	0.712	0.969	0.697	0.64	0.474	0.378	0.427	0.467	0.436	0.445	0.318	0.272	0.216	0.271	0.857	0.807	0.586	0.357	0.229	0.769
NCI-H2087	0.612	0.586	0.582	0.686	0.552	0.924	0.723	0.961	0.83	0.542	0.837	0.918	0.493	0.27	1.11	1.07	0.911	0.222	0.676	0.934
NCI-H2126	0.603	0.696	0.739	0.855	0.624	0.503	0.497	0.531	0.522	0.429	0.673	0.629	0.383	0.309	0.832	0.76	0.736	0.643	–	0.836
NCI-H2170	0.676	0.685	0.739	–	0.613	0.26	0.341	0.335	0.305	0.289	0.676	0.628	0.473	0.173	0.32	0.289	0.264	0.235	0.504	0.266
NCI-H2228	0.544	0.879	0.686	0.6	0.336	0.469	0.353	0.202	0.363	0.247	0.472	0.496	0.552	0.13	1.36	1.03	0.803	0.172	0.653	1.1
NCI-H2347	0.447	0.382	0.421	0.578	0.454	0.637	0.531	0.555	0.437	0.604	0.339	0.318	0.305	0.336	0.898	0.909	0.855	0.844	–	0.746
NCI-H2405	0.6	0.645	0.604	0.598	0.631	0.388	0.528	0.402	0.373	0.303	0.204	0.225	0.211	0.172	1.27	1.23	1.09	0.685	0.228	0.801
